Assay results taken from ChEMBL document CHEMBL2429724, “Computational POM evaluation of experimental in vitro Trypanosoma cruzi and Mycobacterium tuberculosis inhibition of heterocyclic-2-carboxylic acid (3-cyano-1,4-di-noxidequinoxalin-2-yl)amide derivatives” (Med Chem Res, 2013).
Values after ≈ are worked out from the molar mass of the structure shown.

How the values were obtained:
[1] = tested on: Mycobacterium tuberculosis; assay: Antimicrobial activity against Mycobacterium tuberculosis H37Rv ATCC 27294 by microplate Alamar Blue assay; assay type: functional
Trypanosoma cruzi [2] = assay: Antimicrobial activity against benznidazole-resistant epimastigotes of Trypanosoma cruzi Tulahuen 2 assessed as growth inhibition at 25 uM measured on day 5 by spectrophotometry; assay type: functional; details: Tulahuen 2, 120 h, read-out: GI
Trypanosoma cruzi [3] = assay: Antimicrobial activity against benznidazole-resistant epimastigotes of Trypanosoma cruzi Tulahuen 2 assessed as growth inhibition measured on day 5 by spectrophotometry; assay type: functional, organism-based; details: Tulahuen 2, 120 h

N#Cc1c(NC(=O)c2ccc([N+](=O)[O-])s2)[n+]([O-])c2cc(C(F)(F)F)ccc2[n+]1[O-]
MIC [1]: 1.7 µg/mL (≈ 4 µM)

N#Cc1c(NC(=O)c2ccco2)[n+]([O-])c2cc(Cl)c(Cl)cc2[n+]1[O-]
inhibition of growth at 25 µM (Trypanosoma cruzi [2]): 31.6%

Cc1ccc2c(c1)[n+]([O-])c(C#N)c(NC(=O)c1ccco1)[n+]2[O-]
inhibition of growth at 25 µM (Trypanosoma cruzi [2]): 11.6% | MIC [1]: 8.84 µg/mL (≈ 28.5 µM)

Cc1cc2c(cc1C)[n+]([O-])c(NC(=O)c1cccs1)c(C#N)[n+]2[O-]
inhibition of growth at 25 µM (Trypanosoma cruzi [2]): 13.5% | MIC [1]: 1.19 µg/mL (≈ 3.5 µM)

N#Cc1c(NC(=O)c2ccc([N+](=O)[O-])s2)[n+]([O-])c2ccc(Cl)cc2[n+]1[O-]
inhibition of growth at 25 µM (Trypanosoma cruzi [2]): 15%

N#Cc1c(NC(=O)c2ccco2)[n+]([O-])c2ccc(Cl)cc2[n+]1[O-]
MIC [1]: 15.4 µg/mL (≈ 46.4 µM)

N#Cc1c(NC(=O)c2ccc([N+](=O)[O-])o2)[n+]([O-])c2ccc(F)cc2[n+]1[O-]
MIC [1]: 21.7 µg/mL (≈ 60.4 µM)

Cc1ccc2c(c1)[n+]([O-])c(C#N)c(NC(=O)c1cccs1)[n+]2[O-]
inhibition of growth at 25 µM (Trypanosoma cruzi [2]): 16.4% | MIC [1]: 2.08 µg/mL (≈ 6.37 µM)

CC1CS(=O)(=O)CCN1/N=C/c1ccc([N+](=O)[O-])o1 (configuration not stated) [NIFURTIMOX]
MIC (Trypanosoma cruzi [3]): 7.7 µM (≈ 2.21 µg/mL) | inhibition of growth at 25 µM (Trypanosoma cruzi [2]): 100%

N#Cc1c(NC(=O)c2ccco2)[n+]([O-])c2ccccc2[n+]1[O-]
inhibition of growth at 25 µM (Trypanosoma cruzi [2]): 3.1% | MIC [1]: 0.977 µg/mL (≈ 3.3 µM)

N#Cc1c(NC(=O)c2cccs2)[n+]([O-])c2ccc(F)cc2[n+]1[O-]
inhibition of growth at 25 µM (Trypanosoma cruzi [2]): 27.5% | MIC [1]: 1.47 µg/mL (≈ 4.45 µM)

COc1ccc2c(c1)[n+]([O-])c(C#N)c(NC(=O)c1ccc([N+](=O)[O-])s1)[n+]2[O-]
MIC [1]: 9.54 µg/mL (≈ 24.6 µM)

N#Cc1c(NC(=O)c2cccs2)[n+]([O-])c2ccc(Cl)cc2[n+]1[O-]
MIC [1]: 2.47 µg/mL (≈ 7.12 µM)

N#Cc1c(NC(=O)c2cccs2)[n+]([O-])c2cc(F)c(F)cc2[n+]1[O-]
inhibition of growth at 25 µM (Trypanosoma cruzi [2]): 92%

N#Cc1c(NC(=O)c2ccc([N+](=O)[O-])o2)[n+]([O-])c2cc(Cl)c(Cl)cc2[n+]1[O-]
MIC [1]: 13.6 µg/mL (≈ 33.1 µM)

N#Cc1c(NC(=O)c2ccc([N+](=O)[O-])s2)[n+]([O-])c2cc(Cl)c(Cl)cc2[n+]1[O-]
inhibition of growth at 25 µM (Trypanosoma cruzi [2]): 29.8%

Cc1cc2c(cc1C)[n+]([O-])c(NC(=O)c1ccc([N+](=O)[O-])s1)c(C#N)[n+]2[O-]
inhibition of growth at 25 µM (Trypanosoma cruzi [2]): 36.4%

N#Cc1c(NC(=O)c2ccc([N+](=O)[O-])o2)[n+]([O-])c2cc(F)c(F)cc2[n+]1[O-]
MIC [1]: 22.2 µg/mL (≈ 58.7 µM)

N#Cc1c(NC(=O)c2ccc([N+](=O)[O-])o2)[n+]([O-])c2cc(C(F)(F)F)ccc2[n+]1[O-]
MIC [1]: 12.8 µg/mL (≈ 31.3 µM)

CO[C@H]1/C=C/O[C@@]2(C)Oc3c(C)c(O)c4c(O)c(c(/C=N/N5CCN(C)CC5)c(O)c4c3C2=O)NC(=O)/C(C)=C\C=C\[C@H](C)[C@H](O)[C@@H](C)[C@@H](O)[C@@H](C)[C@H](OC(C)=O)[C@@H]1C [RIFAMPIN]
MIC [1]: 0.125 µg/mL (≈ 0.152 µM)

Cc1ccc2c(c1)[n+]([O-])c(C#N)c(NC(=O)c1ccc([N+](=O)[O-])s1)[n+]2[O-]
inhibition of growth at 25 µM (Trypanosoma cruzi [2]): 11.4%

N#Cc1c(NC(=O)c2ccc([N+](=O)[O-])s2)[n+]([O-])c2ccc(C(F)(F)F)cc2[n+]1[O-]
MIC [1]: 6 µg/mL (≈ 14.1 µM)

COc1ccc2c(c1)[n+]([O-])c(C#N)c(NC(=O)c1ccco1)[n+]2[O-]
inhibition of growth at 25 µM (Trypanosoma cruzi [2]): 9.5%

N#Cc1c(NC(=O)c2ccc([N+](=O)[O-])s2)[n+]([O-])c2ccc(F)cc2[n+]1[O-]
inhibition of growth at 25 µM (Trypanosoma cruzi [2]): 2.5%

N#Cc1c(NC(=O)c2ccco2)[n+]([O-])c2cc(F)c(F)cc2[n+]1[O-]
inhibition of growth at 25 µM (Trypanosoma cruzi [2]): 53% | MIC [1]: 4.7 µg/mL (≈ 14.1 µM)

N#Cc1c(NC(=O)c2cccs2)[n+]([O-])c2cc(Cl)c(Cl)cc2[n+]1[O-]
MIC [1]: 13.6 µg/mL (≈ 35.7 µM)

COc1ccc2c(c1)[n+]([O-])c(C#N)c(NC(=O)c1cccs1)[n+]2[O-]
inhibition of growth at 25 µM (Trypanosoma cruzi [2]): 15.1% | MIC [1]: 48.9 µg/mL (≈ 143 µM)

N#Cc1c(NC(=O)c2ccco2)[n+]([O-])c2cc(C(F)(F)F)ccc2[n+]1[O-]
MIC [1]: 17.9 µg/mL (≈ 49.1 µM)

N#Cc1c(NC(=O)c2ccc([N+](=O)[O-])s2)[n+]([O-])c2ccccc2[n+]1[O-]
inhibition of growth at 25 µM (Trypanosoma cruzi [2]): 0% | MIC [1]: 2.88 µg/mL (≈ 8.06 µM)

N#Cc1c(NC(=O)c2cccs2)[n+]([O-])c2ccccc2[n+]1[O-]
inhibition of growth at 25 µM (Trypanosoma cruzi [2]): 19% | MIC [1]: 5.38 µg/mL (≈ 17.2 µM)

N#Cc1c(NC(=O)c2ccc([N+](=O)[O-])o2)[n+]([O-])c2ccc(Cl)cc2[n+]1[O-]
MIC [1]: 5.81 µg/mL (≈ 15.5 µM)

Cc1cc2c(cc1C)[n+]([O-])c(NC(=O)c1ccco1)c(C#N)[n+]2[O-]
inhibition of growth at 25 µM (Trypanosoma cruzi [2]): 13.1%

N#Cc1c(NC(=O)c2ccco2)[n+]([O-])c2ccc(F)cc2[n+]1[O-]
inhibition of growth at 25 µM (Trypanosoma cruzi [2]): 19.8%

N#Cc1c(NC(=O)c2cccs2)[n+]([O-])c2ccc(C(F)(F)F)cc2[n+]1[O-]
MIC [1]: 9.18 µg/mL (≈ 24.1 µM)

N#Cc1c(NC(=O)c2ccc([N+](=O)[O-])s2)[n+]([O-])c2cc(F)c(F)cc2[n+]1[O-]
inhibition of growth at 25 µM (Trypanosoma cruzi [2]): 9.2%

N#Cc1c(NC(=O)c2ccc([N+](=O)[O-])o2)[n+]([O-])c2ccccc2[n+]1[O-]
inhibition of growth at 25 µM (Trypanosoma cruzi [2]): 0.7%

COc1ccc2c(c1)[n+]([O-])c(C#N)c(NC(=O)c1ccc([N+](=O)[O-])o1)[n+]2[O-]
MIC [1]: 14.5 µg/mL (≈ 39 µM)

Cc1cc2c(cc1C)[n+]([O-])c(NC(=O)c1ccc([N+](=O)[O-])o1)c(C#N)[n+]2[O-]
inhibition of growth at 25 µM (Trypanosoma cruzi [2]): 0%

N#Cc1c(NC(=O)c2ccco2)[n+]([O-])c2ccc(C(F)(F)F)cc2[n+]1[O-]
MIC [1]: 24.2 µg/mL (≈ 66.5 µM)

Cc1ccc2c(c1)[n+]([O-])c(C#N)c(NC(=O)c1ccc([N+](=O)[O-])o1)[n+]2[O-]
inhibition of growth at 25 µM (Trypanosoma cruzi [2]): 0%

N#Cc1c(NC(=O)c2ccc([N+](=O)[O-])o2)[n+]([O-])c2ccc(C(F)(F)F)cc2[n+]1[O-]
MIC [1]: 14.4 µg/mL (≈ 35.2 µM)

N#Cc1c(NC(=O)c2cccs2)[n+]([O-])c2cc(F)ccc2[n+]1[O-]
MIC [1]: 4.58 µg/mL (≈ 13.9 µM)
